From patent US20220143116A1 (priority 2019, published 2022)
Where “and” joins values, the source holds several entries; their conditions need not be identical. Equal values may be shown once.

Legend:
[1] = tested on: B16TK-hAPOBEC3B subcutaneous tumors; set-up: species or system C57BL/6 mice; details: mouse, in vivo
[2] = tested on: B16TK cells; type: cell-based, murine
[3] = tested on: B16TK (scrambled shRNA) or B16TK (shRNA APOBEC3) tumors; set-up: species or system C57Bl/6 mice; details: mouse, in vivo
[4] = tested on: B16TK-hAPOBEC3B tumors; set-up: species or system C57BL/6 mice; details: mouse, in vivo

Nc1nc(O)c2ncn(COC(CO)CO)c2n1 [ganciclovir]
tumor growth following GCV treatment [1]: grew significantly more quickly
sensitivity of B16TK cells to treatment [2]: sensitive
long term survivors [3]: 0/7 and 4/7
tumor growth following GCV treatment [4]: grew significantly more quickly
